Assay results: the NIST ThermoML archive (doi:10.1016/j.fluid.2013.02.005)

Tests used:
[1] = for surface tension liquid-gas: Maximal bubble pressure; for mass density: 298.15 K, 101.33 kPa, Vibrating tube method; for mass density / vapor or sublimation pressure: Liquid; for vapor or sublimation pressure: Ebulliometric method (Recirculating still)
[2] = Boiling temperature at pressure P; conditions: 101.33 kPa; Liquid; Ebulliometric method (Recirculating still)
[3] = refractive index (Na D-line) (dimensionless); conditions: 298.15 K; 101.33 kPa; Liquid; Standard Abbe refractometry
[4] = xn = mol fraction of the nth substance listed; conditions: Maximal bubble pressure

Cc1ccc(C)o1 [2,5-dimethylfuran]
[1]
Conditions | surface tension liquid-gas [mN/m] | vapor or sublimation pressure [kPa]
283.15 K | 26.34 | –
303.15 K | 24.05 | –
330.15 K | 20.58 | –
345.24 K | – | 50
357.21 K | – | 75
364.37 K | – | 94

Conditions | Boiling temperature at pressure P [°C] | mass density [kg/m3] | refractive index
[1] | – | 895.63 | –
[2] | 93.68 | – | –
[3] | – | – | 1.44012

Cc1ccc(C)o1 [2,5-dimethylfuran] + CC(C)OC(C)C
surface tension liquid-gas [mN/m], [4]
Conditions | 283.15 K | 330.15 K
x2 = 0 | 26.34 | 20.58
x2 = 0.067 | 24.79 | –
x2 = 0.112 | 24.27 | –
x2 = 0.153 | – | 19.28
x2 = 0.192 | – | 18.93
x2 = 0.234 | 23.31 | –
x2 = 0.245 | – | 18.31
x2 = 0.323 | 22.56 | –
x2 = 0.342 | – | 17.66
x2 = 0.42 | 21.87 | –
x2 = 0.434 | – | 17.01
x2 = 0.52 | 21.31 | –
x2 = 0.543 | – | 16.48
x2 = 0.626 | 20.86 | –
x2 = 0.664 | – | 15.79
x2 = 0.782 | – | 15.16
x2 = 0.897 | – | 14.65

CC(C)OC(C)C [diisopropyl ether]
[1]
Conditions | surface tension liquid-gas [mN/m] | vapor or sublimation pressure [kPa]
283.15 K | 18.88 | –
303.15 K | 16.7 | –
307.64 K | – | 30.01
311.53 K | – | 35.01
314.98 K | – | 40.01
318.08 K | – | 45.01
320.94 K | – | 50.01
321.03 K | – | 50
323.56 K | – | 55.01
326 K | – | 60.01
328.29 K | – | 65.01
330.15 K | 13.88 | –
330.45 K | – | 70.01
332.48 K | – | 75.01
332.65 K | – | 75
334.41 K | – | 80.01
336.23 K | – | 85.01
339.57 K | – | 94
339.65 K | – | 95.01
341.52 K | – | 100.89

Conditions | Boiling temperature at pressure P [°C] | mass density [kg/m3] | refractive index
[1] | – | 718.75 | –
[2] | 68.52 | – | –
[3] | – | – | 1.36652

CC(C)OC(C)C [diisopropyl ether] + Cc1ccc(C)o1
[4], x1 = 1
Conditions | surface tension liquid-gas [mN/m]
283.15 K | 18.88
330.15 K | 13.88
